Measurements taken from patent publication US20120095108A1, “COMPOSITION CONTAINING MICROBIAL ZEAXANTHIN AND PREPARATION THEREOF” (Vigenent Inc., priority 2010, published 2012).

Columns and labels:
[1] = Lipid peroxidation inhibitory activity, ferric thiocyanate method; format: biochemical; conditions: 60 μg/ml; OD 500 nm; 24 hours incubation 37° C.
Experimental: Microbial zeaxanthin was dissolved in 0.2 M potassium phosphate buffer and mixed with linoleic acid emulsion mixture prepared by potassium phosphate buffer. After 24 hours incubation in 37° C., the mixture was added with 75% ethanol, ammonium thiocyanate, and iron(II) chloroide tetrahydrate. The absorbance at 500 nm was determined after 1 min incubation. Inhibtion activity=[1−(Abs of sample/Abs of blank)]*100%.

[2] = Lipid peroxidation inhibitory activity, conjugated diene method; format: biochemical; conditions: 30 μg/ml; OD 234 nm; 15 hour incubation 37° C.
Experimental: Microbial zeaxanthin was dissolved in 0.2 M potassium phosphate buffer and mixed with linoleic acid emulsion mixture prepared by potassium phosphate buffer. The absorbance of 234 nm was determined after 15 hour incubation in 37° C. Inhibition activity=[1−(Abs of sample/Abs of blank)]*100%.

[3] = Lipid peroxidation inhibitory activity, liposome-TBARS method; format: biochemical; conditions: OD 532 nm
Experimental: Microbial zeaxanthin was dissolved in methanol and mixed with liposome emulsion, iron(III) chloride, and ascorbic acid. After 2 hours water bath in 37° C. the mixture was added with butylated hydorxytoluene, thibarbituric acid, and trichloroacetic acid. After 20 min of water bath (100° C.), the mixture was chilled with ice. The absorbance at 532 nm was determined. MDA (malondialdehyde) inhibiton activity=[1−(Abs of sample/Abs of blank)]*100%.

[4] = cited from earlier work
B16/F10 melanoma cells = test: Melanin content in melanoma cells; format: cell-based; conditions: Mus musculus, OD 400 nm; for inhibition at 2 µg/mL: 2 μg/ml; for inhibition at 20 µg/mL: 20 μg/ml
Experimental: B16 F0 mouse melanoma cells were cultured on the dish. The cells were treated with microbial zeaxanthin dissolved in dimethyl sulfoxide. After treated for 24 hrs and 48 hrs, respectively, the medium was removed and the cells were washed with PBS and then dissolved in 1 N NaOH containing 10% DMSO. The relative melanin content was determined at OD400 nm.

[5] = tested on: Human skin fibroblast cells (CCD-966SK cell line); test: Photoprotection activity: viability of UV-irradiated human skin fibroblast cells; format: cell-based; conditions: 15 min UV irradiation, determined at 24 hours
Experimental: Human skin fibroblast cells (CCD-966SK cell line) were cultured on the dish. The cells were treated with microbial zeaxanthin dissolved in dimethyl sulfoxide. After treated for 24 hours the dishes were irradiated UV for 15 min and the cells were incubated for 24 hours. The cells were detached by trypsin and counted by hemocytometer. The protection effect of microbial zeaxanthin on the viability of fibroblast cells is provided (FIG. 3).
Skin fibroblast cells, the essential cells of skin, are responsible for the production of collagen, a structural component of the skin (Stanley et al., (1985) J Invest Dermatol. 85:542-545; Olsen et al., (1989) J. Clin. Invest. 83: 791-795; Akagi et al., (1999) J. Invest. Dermatol. 113: 246-250). Collagen reduction is a biological phenomenon responsible for the wrinkled appearance found in the aged skin caused either intrinsic (chronologic aging) or extrinsic (e.g., photoaging: exposure to UV irradiation) (Burke et al., (1994) Exp Gerontol 29:37-53; Fisher et al., (1997) New Eng J Med 337:1419-1428; Fligiel et al., (2003) J Invest Dermatol. 120:842-848; Varani et al., (2006) Am J Pathol. 168:1861-8; Chauhan and Shakya, (2009) Indian J Dermatol Venereol Leprol. 75:463-8). […]

[6] = Antioxidant activity, DPPH free radical scavenging method; format: biochemical; conditions: OD 517 nm
Experimental: Microbial zeaxanthin was dissolved in methanol and mixed with 2,2-diphenyl-1-picrylhydrazyl in methanol. The absorbance at 517 nm was determined after 30 min incubation. Inhibition activity=[1−(Abs of sample/Abs of blank)]*100%.

[7] = Total antioxidant activity, TEAC (trolox equivalent antioxidant capacity) method; format: biochemical; conditions: OD 734 nm
Experimental: Microbial zeaxanthin was dissolved in 0.01M sodium phosphate buffer and mixed with 2,2′-azino-bis(3-ethylbenzthiazoline-6-sulphonic acid) containing potassium persulfate. The absorbance at 734 nm was determined after 30 min incubation. Inhibition activity=[1−(Abs of sample/Abs of blank)]*100%.

[8] = MTT assay, non-cancer cells ARPE-19; format: cell-based; conditions: human, ARPE-19 retinal pigmented epithelium cells (non-cancer), read-out: cell viability of non-cancer cells
Experimental: (§1) Cancer cells were cultured on a dish, and the cells were treated with microbial zeaxanthin dissolved in dimethyl sulfoxide. After 24 hrs incubation, thiazolyl blue tetrazolium bromide was added to the cells and incubated for 4 hours. The medium was removed and the crystals were dissolved in dimethyl sulfoxide followed by measuring the absorbance at 590 nm. Cell viability=(Abs of cell treated zeaxanthin/Abs of cell with no treatment)*100%. Since xanthophylls have been reported to be associated with lower risk of cancers (Orjuela et al., (2005) Cancer Epidemiol Biomarkers Prey. 14:1433-40; Kelemen et al., (2006) Am J Clin Nutr. 83: 1401-10; Zhang et al., (2007) Nutr Cancer. 59:46-53; Tamimi et al., (2009) Cancer Res. 69: 9323-9; Lee et al., (2009) Cancer Epidemiol Biomarkers Prey. 18:1730-9), it is necessary to determine if the microbial zeaxanthin contains anti-cancer activity. […] For comparison, the cell viabilities of non-cancer cells are 105.6% for retinal pigmented epithelium cell (ARPE-19); 102.3% for embryonic fibroblast (BCRC60118) and 95.8% for human skin fibroblast (BCRC 60153). […] For comparison, the cell viabilities of non-cancer cells are 124.2% for retinal pigmented epithelium cell (ARPE-19); 101.2% for embryonic fibroblast (BCRC60118) and 99.8% for human skin fibroblast (BCRC 60153). […]

[9] = MTT assay, non-cancer cells BCRC60118; format: cell-based; conditions: human, embryonic fibroblast cells BCRC60118 (non-cancer), read-out: cell viability of non-cancer cells
Experimental: as §1

[10] = tested on: pharynx squamous cell carcinoma (FaDu); test: Anti-proliferation MTT assay, FaDu; format: cell-based; conditions: Homo sapiens, 24 hrs
Experimental: as §1

[11] = tested on: ovarian cancer (TOV-112D); test: Anti-proliferation MTT assay, TOV-112D; format: cell-based; conditions: Homo sapiens, TOV112D, 24 hrs, read-out: cell viability
Experimental: as §1

[12] = tested on: breast adenocarcinoma (MCF7); test: Anti-proliferation MTT assay, MCF7; format: cell-based; conditions: Homo sapiens, 24 hrs, read-out: cell viability
Experimental: as §1

[13] = tested on: bladder primary carcinoma (5637); test: Anti-proliferation MTT assay, 5637; format: cell-based; conditions: Homo sapiens, 24 hrs, read-out: cell viability
Experimental: as §1

[14] = tested on: prostate carcinoma (PC-3); test: Anti-proliferation MTT assay, PC-3; format: cell-based; conditions: Homo sapiens, 24 hrs, read-out: cell viability
Experimental: as §1

[15] = tested on: gastric adenocarcinoma (AGS); test: Anti-proliferation MTT assay, AGS; format: cell-based; conditions: Homo sapiens, 24 hrs, read-out: cell viability
Experimental: as §1

[16] = tested on: thyroid squamous cell carcinoma (SW579); test: Anti-proliferation MTT assay, SW579; format: cell-based; conditions: Homo sapiens, 24 hrs
Experimental: as §1

[17] = tested on: colorectal adenocarcinoma (LS123); test: Anti-proliferation MTT assay, LS123; format: cell-based; conditions: Homo sapiens, 24 hrs, read-out: cell viability
Experimental: as §1

[18] = tested on: pancreatic adenocarcinoma (BxPC-3); test: Anti-proliferation MTT assay, BxPC-3; format: cell-based; conditions: Homo sapiens, 24 hrs, read-out: cell viability
Experimental: as §1

choriocarcinoma (JAR) = test: Anti-proliferation MTT assay, JAR; format: cell-based; conditions: Homo sapiens, 24 hrs, read-out: cell viability
Experimental: as §1

[19] = MTT assay, non-cancer cells BCRC 60153; format: cell-based; conditions: human, skin fibroblast cells BCRC 60153 (non-cancer), read-out: cell viability of non-cancer cells
Experimental: as §1

CC1=C[C@H](O)CC(C)(C)[C@H]1/C=C/C(C)=C/C=C/C(C)=C/C=C/C=C(C)/C=C/C=C(C)/C=C/C1=C(C)C[C@@H](O)CC1(C)C [lutein, reference compound]
lipid peroxidation inhibitory activity (ferric thiocyanate method) [1]: 68.6%
lipid peroxidation inhibitory activity (conjugated diene method) [2]: 68.7%

CC1=C(/C=C/C(C)=C/C=C/C(C)=C/C=C/C=C(C)/C=C/C=C(C)/C=C/C2=C(C)C[C@@H](O)CC2(C)C)C(C)(C)C[C@H](O)C1 [microbial zeaxanthin, 4-[18-(4-hydroxy-2,6,6-trimethyl-1-cyclohexenyl)-3,7,12,16-tetramethyl-octadeca-1,3,5,7,9,11,13,15,17-nonaenyl]-3,5,5-trimethyl-cyclohex-3-en-1-ol]
inhibition on free MDA formation ([3]; 125 μg/ml): 55.23%
inhibition on free MDA formation ([3]; 250 μg/ml): 61.05%
inhibition on free MDA formation ([3]; 500 μg/ml): 71.16%
inhibition on free MDA formation ([3]; 1000 μg/ml): 78.45%
inhibition on free MDA formation ([3]; 2000 μg/ml): 80.75%
Solubility in chloroform ([4]; chloroform): soluble giving a clear intensive orange-red
Solubility in ethanol ([4]; ethanol): sparingly
Solubility in water ([4]; water): insoluble
lipid peroxidation inhibitory activity (ferric thiocyanate method) [1]: 66.9%
inhibition at 2 µg/mL (B16/F10 melanoma cells; 24 hrs): 6.74%
inhibition at 2 µg/mL (B16/F10 melanoma cells; 48 hrs): 32.5%
inhibition at 20 µg/mL (B16/F10 melanoma cells; 24 hrs): 22.7%
inhibition at 20 µg/mL (B16/F10 melanoma cells; 48 hrs): 36.7%
cell viability increased as compared to no zeaxanthin treatment ([5]; 20 μg/ml): 18.9%
cell viability increased as compared to no zeaxanthin treatment ([5]; 50 μg/ml): 33.7%
inhibition on absorbance (DPPH) ([6]; 62.5 μg/ml): 10.02%
inhibition on absorbance (DPPH) ([6]; 125 μg/ml): 13.04%
inhibition on absorbance (DPPH) ([6]; 250 μg/ml): 30.18%
inhibition on absorbance (DPPH) ([6]; 500 μg/ml): 48.20%
inhibition on absorbance (DPPH) ([6]; 1000 μg/ml): 96.69%
inhibition on absorbance (TEAC) ([7]; 62.5 μg/ml): 15.68%
inhibition on absorbance (TEAC) ([7]; 125 μg/ml): 28.13%
inhibition on absorbance (TEAC) ([7]; 250 μg/ml): 53.35%
inhibition on absorbance (TEAC) ([7]; 500 μg/ml): 91.22%
lipid peroxidation inhibitory activity (conjugated diene method) [2]: 67.4%

CC1=C(/C=C/C(C)=C/C=C/C(C)=C/C=C/C=C(C)/C=C/C=C(C)/C=C/C2=C(C)C[C@@H](O)CC2(C)C)C(C)(C)C[C@H](O)C1 (stereo in doubt) [microbial zeaxanthin, 4-[18-(4-hydroxy-2,6,6-trimethyl-1-cyclohexenyl)-3,7,12,16-tetramethyl-octadeca-1,3,5,7,9,11,13,15,17-nonaenyl]-3,5,5-trimethyl-cyclohex-3-en-1-ol]
viability at 24 h, 30 μg/ml ([8]; 30 μg/ml): 106%
viability at 24 h, 60 μg/ml ([8]; 60 μg/ml): 124%
viability at 24 h, 30 μg/ml ([9]; 30 μg/ml): 102%
viability at 24 h, 60 μg/ml ([9]; 60 μg/ml): 101%
viability at 30 µg/mL ([10]; 30 μg/ml): 72.6%
viability at 60 µg/mL ([10]; 60 μg/ml): 28.5%
viability at 30 µg/mL ([11]; 30 μg/ml): 70.3%
viability at 60 µg/mL ([11]; 60 μg/ml): 20.3%
viability at 30 µg/mL ([12]; 30 μg/ml): 78.7%
viability at 60 µg/mL ([12]; 60 μg/ml): 61.6%
viability at 30 µg/mL ([13]; 30 μg/ml): 45.9%
viability at 60 µg/mL ([13]; 60 μg/ml): 16.4%
viability at 30 µg/mL ([14]; 30 μg/ml): 74%
viability at 60 µg/mL ([14]; 60 μg/ml): 67.7%
viability at 30 µg/mL ([15]; 30 μg/ml): 57.3%
viability at 60 µg/mL ([15]; 60 μg/ml): 40.1%
viability at 30 µg/mL ([16]; 30 μg/ml): 70.9%
viability at 60 µg/mL ([16]; 60 μg/ml): 71.7%
viability at 30 µg/mL ([17]; LS-123, 30 μg/ml): 72.3%
viability at 60 µg/mL ([17]; LS-123, 60 μg/ml): 75.3%
viability at 30 µg/mL ([18]; 30 μg/ml): 75.6%
viability at 60 µg/mL ([18]; 60 μg/ml): 33.4%
viability at 30 µg/mL (choriocarcinoma (JAR); 30 μg/ml): 72.1%
viability at 60 µg/mL (choriocarcinoma (JAR); 60 μg/ml): 40%
viability at 24 h, 30 μg/ml ([19]; 30 μg/ml): 95.8%
viability at 24 h, 60 μg/ml ([19]; 60 μg/ml): 99.8%
